In patent US20160374944A1, “COMPOSITIONS AND METHODS FOR TREATING AND PREVENTING CANCER BY TARGETING AND INHIBITING CANCER STEM CELLS” (priority 2011, published 2016):

Legend:
Pancreatic CSCs [1] = assay: Matrigel invasion assay; format: cell-based, human
Procedure: (A and B) Pancreatic CSCs were treated with rottlerin (0-1 μM) for 24 h. The expression of Zeb-1 and Slug was measured by the qRT-PCR and normalized to GAPDH. […] (C) In vitro Matrigel invasion assay. CSCs were plated onto the Matrigel-coated membrane in the top chamber of the transwell and treated with rottlerin (0-2 μM) for 48 h. Cells invaded to the lower chamber were fixed with methanol, stained with crystal violet and photo micrographed.
(A) Pancreatic CSCs were treated with EGCG (0-60 μM) for 48 h. At the end of incubation period, the expression of Snail, ZEB1 and Slug was measured by q-RT-PCR. […] (B) Transwell migration assay. Pancreatic CSCs were plated in the top chamber of the transwell and treated with EGCG (0-60 μM) for 24 h. Cells migrated to the lower chambered were fixed with methanol, stained with crystal violet and counted. […] (C) Matrigel invasion assay. CSCs were plated onto the Matrigel-coated membrane in the top chamber of the transwell and treated with EGCG (0-60 μM) for 48 h. Cells invaded to the lower chambered were fixed with methanol, stained with crystal violet and counted. […] (D) Effects of EGCG on TCF-1/LEF activity. Pancreatic CSCs were transduced with TCF/LEF responsive GFP/firefly luciferase viral particles (pGreen Fire1-Gli with EF1, System Biosciences). Transduced CSCs were treated with EGCG (0-60) for 48 h and the GFP fluorescence was measured.
FIG. 42A and FIG. 42B show graphs showing quercetin synergizes with EGCG to inhibit self-renewal capacity, invasion, migration, and TCF/LEF and Gli transcriptional activities in pancreatic CSCs. (A) Effects of EGCG and quercetin on spheroid and colony formation. Upper Panel, uercetin synergizes with EGCG to inhibit spheroid's cell viability. CSCs were seeded in suspension and treated with EGCG (0-60 μM) with or without quercetin (20 μM) for 7 days. At the end of incubation period, all the spheroids were collected and resuspended. Cell viability was measured by trypan blue assay. […] Lower panel, uercetin synergizes with EGCG to inhibit colony formation. Pancreatic CSCs were seeded in soft agar and treated with various doses of EGCG (0-60 μM) with or without quercetin (20 μM) and incubated at […] for 21 days. At the end of incubation period, colonies were counted. […] (B) Effects of EGCG and quercetin on invasion and migration. Upper panel, Matrigel invasion assay. […] Cells invaded to the lower chambered were fixed with methanol, stained with crystal violet and counted. […] Cells migrated to the lower chambered were fixed with methanol, stained with crystal violet and counted. […] Apoptosis was measured by TUNEL assay. […] Transduced CSCs were treated with EGCG (40 μM) with or without quercetin (20 μM) for 48 hrs and the luciferase activity was measured.

Pancreatic CSCs [2] = assay: spheroid formation and cell viability in spheroids (trypan blue); format: cell-based, human; details: SFN 0-10 μM with or without quercetin 20 μM, 7 days
[3] = EGCG 0-60 μM with or without quercetin 20 μM, 48 hrs

SMILES | invasion (Pancreatic CSCs [1]; [3]) | invasion (Pancreatic CSCs [1]; EGCG 0-60 μM, 48 h) | cell viability in spheroids (Pancreatic CSCs [2]) | in vitro invasion (Pancreatic CSCs [1]; rottlerin 0-2 μM, 48 h, Matrigel)
O=C(O[C@@H]1Cc2c(O)cc(O)cc2O[C@@H]1c1cc(O)c(O)c(O)c1)c1cc(O)c(O)c(O)c1 [EGCG, epigallocatechin gallate] | inhibited cell viability in spheroids, colony formation, migration and invasion by CSCs in a dose-dependent manner | inhibited | – | –
O=c1c(O)c(-c2ccc(O)c(O)c2)oc2cc(O)cc(O)c12 [quercetin] | effective alone | – | effective alone | –
CC(=O)c1c(O)c(C)c(O)c(Cc2c(O)c3c(c(C(=O)/C=C/c4ccccc4)c2O)OC(C)(C)C=C3)c1O [rottlerin] | – | – | – | inhibited the in vitro invasion
C[S+]([O-])CCCCN=C=S (stereo not drawn) [sulforaphane] | – | – | inhibited the cell viability and colony formation of pancreatic CSCs in a dose-dependent manner | –
